For the series, the system named is RPTEC/TERT1 cells. Format: cell-based, human. As for the experimental part: For high content imaging, NRK-52E and RPTEC/TERT1 cells were cultivated in µ-clear half well area microtiter plates (Greiner) according to the protocol described for the cytotoxicity assay with slight modification. Briefly, NRK-52E cells were seeded at 5,000 cells in 100 µL growth medium per well and were incubated under standard growth conditions for 48 h prior to treatment. RPTEC/TERT1 cells were seeded at 15,000 cells in 100 µL growth medium per well and incubated under standard growth conditions for 7–8 days, until cells reached confluence and started to differentiate. This was indicated by the formation of three-dimensional structures referred to as domes which were identified by regular microscopic inspection of the plates. Only differentiated cell cultures with detectable domes were assayed. Cells of both cell lines were treated with serially diluted Polymyxin B sulfate (concentration range 7.8 to 2,000 µM) for 1, 2, 4, 6, or up to 24 h. The assay was carried out on three biological replicates defined as three different non-consecutive passages of the cell culture. Each biological replicate at each treatment concentration was assayed in triplicate wells per plate.
Following treatment, cells were stained with two different combinations of fluorescent dyes: NRK-52E cells with 50 pg/μL LysoView™ 633 (Biotium) and 1 µM SYTO 16 (Thermo Scientific), respectively, for lysosomes and nuclei; RPTEC/TERT1 cells with 10 nM LysoTracker™ Red (Thermo Scientific) and 10 ng/μL Hoechst 33342 (Merck-Sigma Aldrich), respectively, for lysosomes and nuclei. For each cell line a staining solution was obtained by mixing the lysosomes and nuclei dyes in cell culture medium at the concentrations indicated above. The cells were stained by replenishing the medium for 100 µL of staining solution per well followed by incubation at 37°C and 5% CO2 for 30 min before imaging.
Images were acquired with a fully automated fluorescence confocal Opera™ QEHS system (PerkinElmer, United Kingdom) using a ×40 air UPlanApo objective (Olympus) with 0.85 numerical aperture. NRK-52E cells stained with the dyes SYTO 16 and LysoView™633 were imaged with the laser lines 488 and 635 nm, using a 488/561/635 nm primary dichroic mirror, a 510 nm long pass (LP) detection dichroic mirror, a 540/75 nm band pass (BP) emission filter for SYTO 16 and a 690/50 nm BP emission filter for LysoView™ 633. RPTEC/TERT1 cells stained with the dyes Hoechst 33342 and LysoTracker™Red were imaged with the laser lines 405 and 561 nm, using a 405/561/635 nm primary dichroic mirror, a 580 nm LP detection dichroic mirror, a 450/50 nm BP emission filter for Hoechst 33342 and a 600/40 nm BP emission filter for LysoTracker™Red. To prevent cross talk of the fluorescent signals, each dye was imaged consecutively using the combination of lasers and filters described above. The settings for laser power, exposure time and focal height were kept constant for each cell line across all the experiments. For NRK-52E cells images were acquired at 25 randomly distributed positions in a well at a single focal plane whereas for RPTEC/TERT1 cells due to the development of dome structures images were acquired at 9 random positions at three focal planes each 1 μm apart.
The images were analyzed by custom-made image analysis scripts either with the imaging analysis software Acapella (version 2.8 PerkinElmer) or Columbus (version 2.4.0 PerkinElmer). The scripts included modules for the identification and counting of the cell nuclei to extrapolate the number of cells per well, for definition of a cytoplasm surrounding the nucleus, for identification and counting of the lysosome vesicles within the cytoplasm. Additional cellular parameters included the nuclei size, intensity, the cell size (cell area), the lysosome size (lysosome area), intensity and the number of lysosomes normalized by the cell area to compensate for difference in size of the cells.

[1] abbreviates: RPTEC/TERT1, 250 µM, high content imaging.

Read-outs that look alike come from different tables or passages of the source.

Consider Colistin, for which the “Effect on lysosomal endpoints in high content screening” value (RPTEC/TERT1, 24 h, 7.8 to 2000 µM (smaller range for CdCl2 and 4-aminophenol), triplicate experiments, Figure S1) was “most prominent effects on lysosomal endpoints”.

For Polymyxin B, the “Treatment time at which nuclear changes were first recorded” value (RPTEC/TERT1, 125 µM, high content imaging (nuclei area, nuclei intensity)) came to 4 h and the “Treatment time at which nuclear changes were first recorded” value under setting [1] is 2 h. The “Treatment time at which lysosomal effects were measurable” value reads like this: (RPTEC/TERT1, 125 µM, high content imaging, three biological replicates in triplicate wells) 1 h; under setting [1], 1 h. Moreover, for the setting “RPTEC/TERT1, 24 h treatment, Figure S1”, the “Cytotoxicity in high content screening” value is “severe cytotoxicity”.

These data come from publication PMC9061999, “Application of the Adverse Outcome Pathway Concept to In Vitro Nephrotoxicity Assessment: Kidney Injury due to Receptor-Mediated Endocytosis and Lysosomal Overload as a Case Study” (Frontiers in Toxicology, 2022).
